Results on three compounds are retold here after patent US5162373A, “Methods and improved formulations for the determination and treatment of malignant disease in patients” (priority 1989, dated 1992).

Data set [1] has as its system intestinal epithelium / gut mucosa. Particulars: cited from earlier work.
Data set [2] in a line: Toxicity of continuous i.v. DFMO infusion in rats (FIG. 3). It is filed as in vivo, rat. Particulars: 12 days; 500-2000 mg/kg/day. The source says: FIG. 3. […] Bars indicate standard deviation.
In the above described rat model, a continuous infusion of DFMO was given through a central venous catheter.

Details of data set [3]: species or system human (patients with advanced colorectal carcinoma). Particulars: human, in vivo. The source says:
FIG. 4. Platelet counts plotted against days of continuous i.v. DFMO infusion in patients with advanced colorectal carcinoma. […] The paired points are connected by a straight line.
There was no incidence of nausea, vomiting or diarrhea.

Another data set has as its system platelets. Particulars: rat, in vivo.
Data set [4] concerns tumor putrescine; MCA sarcoma.
Data set [5] deals with intestinal epithelium / gut mucosa. The data set can be described thus: Trophic/protective effect on intestinal epithelium, other studies. The class given is in vivo. The note with it: doses as high as 20 g/L.

The structures appear in SMILES notation.

With `NCCCCN` [putrescine], the “colonic DNA and protein content” value in data set [1] (about 50 micromole/100 gram body weight) was “increases in colonic DNA and protein content”. In addition, the “DNA and RNA content and protein in ileum” value in data set [1] (putrescine about 1 micromole) was “increased DNA and RNA content and protein”. For the same compound, the mucosal proliferation entry in data set [1] (putrescine: intraluminal infusion) is recorded as “stimulation of mucosal proliferation”.
As to `NCCCC(N)(C(=O)O)C(F)F` (stereo not shown) [DFMO, Difluoromethylornithine], in data set [2], the clinical toxicity entry was “no significant clinical toxicity”. In data set [3], the White cell count result is given as “not affected by either dose”; the decreased hearing acuity entry was “two patients who experienced decreased hearing acuity”; the hematocrit result was “Significant suppression of the hematocrit”; the “nausea, vomiting or diarrhea” value is “no incidence”. Besides, in data set [3], the platelet suppression result is recorded as “significant at both doses”; the “platelet suppression, 8 g vs 6 g dose” value is “significantly greater platelet suppression at the 8 g dose as compared with the 6 g dose”; the “resolution of toxicities after discontinuing infusion” value is recorded as “resolved spontaneously within two weeks”. Also, the “platelet suppression, in words” value in the data set on platelets is “significant decrease in platelet count as compared with the saline treatment”. Moreover, the “decrease in tumor putrescine levels” value in data set [4] (DFMO infusion) is listed as 90%. In addition, in data set [4] (rat, in vivo), the “growth of MCA sarcoma” value is reported as “reduces the growth rate of an MCA sarcoma but does not produce tumor regression” and the peripheral platelet counts entry is “without suppressing peripheral platelet counts”.
Turning to `NC(=O)CC[C@H](N)C(=O)O` [glutamine, L-glutamine], in data set [5], the “trophic effect on intestinal epithelium” value is on record as “trophic effect on intestinal epithelium, especially the ileum”. Besides, in data set [1] (10-20 g/L), the “gut epithelium, glutamine added to TPN” value is on record as “restores gut epithelium”. Further, the “transmucosal migration of bacteria into mesenteric lymph nodes” value in data set [1] (compared with glutamine deficient formulas) is “present transmucosal migration of bacteria into mesenteric lymph nodes”. Further, in data set [1] (oral, rats receiving toxic doses of 5FU or methotrexate), the “protection of gut mucosa” value is reported as “protected the gut mucosa”.
